Measurements: paper PMC9584815, “The aldolase inhibitor aldometanib mimics glucose starvation to activate lysosomal AMPK” (Nature Metabolism, 2022)
Where a chain is given by its changes, count along the chain named.

Assays:
rabbit aldolase (ALDOA) = molecular target: T1, rabbit aldolase (ALDOA) (Oryctolagus cuniculus, UniProt P00883); experiment: SPR (CM5 chip, Biacore 8K); also MS adduct on Lys230 and enzymatic inhibition (IC50 about […]); assay type: binding
T1 construct: rabbit aldolase (ammonium sulfate precipitated; A8811)
T1 sequence (P00883 2-364): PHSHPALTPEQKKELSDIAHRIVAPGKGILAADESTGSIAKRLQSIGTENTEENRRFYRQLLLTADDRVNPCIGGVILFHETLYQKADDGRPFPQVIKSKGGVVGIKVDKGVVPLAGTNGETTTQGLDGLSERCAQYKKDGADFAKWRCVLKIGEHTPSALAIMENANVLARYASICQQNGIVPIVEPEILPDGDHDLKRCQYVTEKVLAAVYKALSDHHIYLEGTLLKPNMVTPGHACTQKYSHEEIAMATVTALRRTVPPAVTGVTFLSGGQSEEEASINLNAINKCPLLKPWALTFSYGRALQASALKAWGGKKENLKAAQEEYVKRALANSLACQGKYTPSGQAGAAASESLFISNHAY

ALDOA = molecular target: T2, ALDOA (Homo sapiens, UniProt P04075); experiment: aldolase/TPI/GPDH-coupled NADH assay; assay type: biochemical
T2 construct: full-length, His-tagged, bacterially expressed and purified
T2 sequence (P04075 2-364): T1 sequence (P00883 2-364) with H2Y, S3Q, H4Y, Y243F, V267I, I358V

Kd (rabbit aldolase (ALDOA)): ~20 µM | IC50 (ALDOA): ~50 µM
Structure (SMILES): CCCCCCCCCCCCCCCCn1cc[n+](Cc2c(Cl)cccc2Cl)c1C [LXY-05-029, aldometanib]
